Data taken from patent US4822775A, “Phenyl substituted dipeptide amides” (priority 1986, dated 1989).
pIC50: −log10 of the molar value. Where two headings read alike, the source gives them in different places.

Tests used:
[1] = system: mice; assay: Writhing assay (phenylbenzoquinone-induced writhing); type: in vivo, mouse; conditions: 30 min before phenylbenzoquinone i.p.; for Writhing Mouse Oral: screening dose 10 mg/kg p.o. (intragastric); for Writhing Mouse Subc.: screening dose 10 mg/kg s.c.
Procedure: Writhing assay. Male Charles River albino mice (CD-1/HAM/1LR) weighing between 20 and 30 grams were used. Thirty minutes after subcutaneous or intragastric administration of the test compound (0.1 mg/10 gram body weight), 0.025% (w/v) phenylbenzoquinone was injected intraperitoneally (0.1 ml/10 gram body weight). Five minutes later, each mouse was placed in a large glass beaker and the number of writhes that occurred in the subsequent ten minutes is counted. A writhe consisted of dorsoflexion of the back, extension of the hindlimbs, and strong contraction of the abdominal musculature. The test compounds was considered to have produced analgesia in a mouse if the number of writhes elicited by phenylbenzoquinone was equal to or less than one-half the median number of writhes recorded for the saline-treated group that day. The results were expressed as the number of mice (out of a possible ten) in which the test compound produced analgesia.

[2] = target: opiate receptors isolated from rat brain; type: binding; conditions: for pIC50: read-out: Opiate Binding, IC50
[3] = system: rat; conditions: injected directly into the brain of the rat; cited from earlier work
[4] = system: opiate activity; conditions: cited from earlier work
[5] = 1 nM 3H-Naloxone, rat brain receptor membranes, standard screening dose 10^-5 molar (words such as Inactive refer to it)
[6] = 1 nM 3H-Naloxone, rat brain receptor membranes, standard screening dose 10^-5 molar (words such as Inactive refer to it), monohydrochloride

Row | Compound | Writhing Mouse Oral [1] | Writhing Mouse Subc. [1] | further results
1 | 2,6-dimethyl-L-tyrosyl-N-[2-(2-thienyl)ethyl]-D-alaninamide, monohydrochloride [Example 39] | Inactive | Inactive | –
2 | 2,6-dimethyltyrosyl-N-(2,3-dihydro-1H-inden-2-yl)-D-alaninamide, monohydrochloride [Example 24] | Inactive | Lethal | pIC50 [2, 5]: 6.07
3 | 2,6-dimethyltyrosyl-N-(6-methoxy-6-oxohexyl)-D-alaninamide, monohydrochloride [Example 5] | – | Inactive | pIC50 [2, 6]: 5.00
4 | 2,6-dimethyltyrosyl-N-(6-methoxy-6-oxohexyl)-D-alaninamide, monohydrochloride [Example 7] | Inactive | Inactive | pIC50 [2, 6]: 6.00
5 | 2,6-dimethyltyrosyl-N-[3-(2-thienyl)propyl]-D-alaninamide, monohydrochloride [Example 46] | – | – | pIC50 [2, 6]: 6.66; Writhing Mouse Oral ([1]; monohydrochloride, 10 mg/kg): Inactive; Writhing Mouse Subc. ([1]; monohydrochloride, 10 mg/kg): Inactive
6 | 2,6-dimethyltyrosyl-N-[3-(2-thienyl)propyl]-D-alaninamide, monohydrochloride [Example 47] | – | – | pIC50 [2, 6]: 8.54; Writhing Mouse Oral ([1]; monohydrochloride, 10 mg/kg): Active; Writhing Mouse Subc. ([1]; monohydrochloride, 10 mg/kg): Active
7 | 2,6-dimethyltyrosyl-N-[3-(3-thienyl)-2E-propenyl]-D-alaninamide, monohydrochloride [Example 58] | Inactive | Active | pIC50 [2, 5]: 9.00
8 | 2,6-dimetyltyrosyl-N-[3-(2-thienyl)-2E-propenyl]-D-alaninamide, monohydrochloride [Example 52] | Inactive | Active | –
9 | 2-(2R-amino-1-oxopropyl)-1,2,3,4-tetrahydroisoquinoline, monohydrochloride [Example 32] | Active | Inactive | Opiate Binding, IC50 [2, 5]: Inactive
10 | Cc1cc(O)cc(C)c1CC(NC(=O)OC(C)(C)C)C(=O)N[C@H](C)C(=O)NCCSc1ccccc1 (mixture of isomers) [Example 108, N-[(1,1-dimethylethoxy)carbonyl]-2,6-dimethyl-DL-tyrosyl-N-[2-(phenythio)ethyl]-D-alaninamide] | Inactive | Active | pIC50 [2]: 8.09
11 | Cc1cc(O)cc(C)c1CC(NC(=O)OC(C)(C)C)C(=O)N[C@H](C)C(=O)NCCOc1ccccc1 (mixture of isomers) [Example 115, N-[(1,1-dimethylethoxy)carbonyl]O2,6-dimethyl-DL-tyrosyl-N-(2-phenoxyethyl)-D-alaninamide] | Active | Active | pIC50 [2]: 8.06
12 | Cc1cc(O)cc(C)c1C[C@H](N)C(=O)N[C@@H](C)C(=O)N1CCCc2ccccc21.Cl (relative stereo) [Example 29, αS-R*-amino-4-hydroxy-2,6-dimethyl-N-[1S*-methyl-2-oxo-2-(1,2,3,4-tetrahydro-1-quinolinyl)ethyl]benzenepropanamide, monohydrochloride] | Inactive | Inactive | pIC50 [2]: 5.31
13 | Cc1cc(O)cc(C)c1C[C@H](N)C(=O)N[C@H](C)C(=O)N1CCc2ccccc2C1.Cl (single isomer, unassigned) [Example 35, α-amino-4-hydroxy-2,6-dimethyl-N-[1R-methyl-2-oxo-2-(1,2,3,4-tetrahydro-2-isoquinolinyl)ethyl]benzenepropanamide, monohyrochloride] | Active | Active | pIC50 [2, 5]: 7.85
14 | C[C@@H](NC(=O)OCc1ccccc1)C(=O)NC1Cc2ccccc2C1 [Example 20, phenylmethyl [2-[(2,3-dihydro-1H-inden-2-yl)amino]-1R-methyl-2-oxoethyl]carbamate] | Inactive | Active | Opiate Binding, IC50 [2, 5]: Inactive
15 | C[C@@H](N)C(=O)NC1Cc2ccccc2C1 [Example 21] | Inactive | Active | Opiate Binding, IC50 [2]: Inactive
16 | C[C@@H](NC(=O)OCc1ccccc1)C(=O)N1CCCc2ccccc21 [Example 25, phenylmethyl [1R-methyl-2-oxo-2-(1,2,3,4-tetrahydro-1-quinolinyl)ethyl]carbamate] | Inactive | Inactive | pIC50 [2, 5]: 4.10
17 | C[C@@H](N)C(=O)NCCCc1cccs1 [Example 44, 2R-amino-N-[3-(2-thienyl)propyl]propanamide] | Active | Active | Opiate Binding, IC50 [2, 5]: Inactive
18 | COc1ccc(CCCNC(=O)[C@@H](C)N)cc1 [Example 60, αR-amino-N-[3-(4-methoxyphenyl)propyl]propanamide] | Active | Active | pIC50 [2, 5]: 4.44
19 | Cc1cc(O)cc(C)c1C[C@H](N)C(=O)N[C@H](C)C(=O)NCCC(c1ccccc1)c1ccccc1.Cl [Example 73, 2,6-dimethyltyrosyl-N-(3,3-diphenylpropyl)-D-alaninamide, monohydrochloride] | Inactive | Active | pIC50 [2, 5]: 9.52
20 | Cc1cc(O)cc(C)c1C[C@H](N)C(=O)N[C@H](C)C(=O)NCCSc1ccccc1.Cl [Example 109, 2,6-dimethyltyrosyl-N-[2-(2-(phenylthio)ethyl]-D-alaninamide, monohydrochloride] | – | – | pIC50 [2]: 9.40
21 | Cc1cc(O)cc(C)c1C[C@H](N)C(=O)N[C@H](C)C(=O)NCCSc1ccccc1.Cl [Example 109] | Inactive | Active | –
22 | methionine enkephalin | – | – | analgesic activity [3]: only weak, fleeting analgesic activity; activity in bioassays for opiate activity [4]: highly active
23 | α-amino-4-hydroxy-2,6-dimethyl-N-[1R-methyl-2-oxo-2-(1,2,3,4-tetrahydro-1-quinolinyl)ethyl]benzenepropanamide, monohydrochloride [Example 30] | Inactive | Inactive | –
24 | α-amino-4-hydroxy-2,6-dimethyl-N-[1R-methyl-2-oxo-2-(1,2,3,4-tetrahydro-2-isoquinolinyl)ethyl]benzenepropanamide, monohydrochloride [Example 37] | Inactive | Inactive | pIC50 [2, 5]: 5.85
